Assay results taken from patent publication US5929035A, “Methods of treating intestinal disorders” (Regents of the University of Michigan, priority 1998, dated 1999).
Like-named read-outs stand apart in the source and are kept apart here.

Legend:
[1] = test system: longitudinal muscle from rat proximal colon
[2] = test system: longitudinal muscle strips of proximal colon from BAC- or vehicle-treated rats; experiment: Benzalkonium chloride (BAC) myenteric plexus ablation, organ bath experiments; set-up: species or system rat
From the text: This example examined benzalkonium chloride (BAC)-treatment. […] EFS caused frequency-dependent and TTX-sensitive contractions in vehicle-treated tissues but not BAC-treated tissues. However, carbachol contracted both vehicle- and BAC-treated tissues with the same degree. These previous studies indicate that chronic ablation of the myenteric plexus by serosal application of BAC essentially eliminates neuronally mediated responses without a concomitant alteration in muscle contractility. To investigate if the action of OFQ is mediated via intramural myenteric plexus, BAC (0.1%) was applied to the serosal surface of the proximal colon every 5 min for 30 min and then rinsed off with saline. Saline-treated group served as controls. Two weeks after BAC- or saline-treatment, the longitudinal muscle strips were used for the organ bath experiments.
The area under the curve was calculated using Planix 7 (Sokkia Corporation,Overland Park, Kans.) and expressed as a motility index. The area under the curve of basal contraction was evaluated over 10 min in each experiment. The area under the curve of antagonist-induced contractions and OFQ-induced contractions was also evaluated over 10 min. The motility index was compared between basal contractions and OFQ-induced contractions in each experiment.

[3] = test system: longitudinal muscle strips from rat ileum
[4] = test system: longitudinal muscle strips from rat gastric body
[5] = test system: longitudinal muscle strips from rat proximal colon
colonic motility = settings: literature; cited from earlier work
post-operative ileus = settings: cited from earlier work

For “[p-chloro-D-Phe^6, LEU ^17 ]-VIP [VIP antagonist]”, the “antagonism of the action of VIP” value [1] was “significantly antagonized”, the “effect of antagonist on OFQ-induced contractions” value (shortened to “effect of antagonist”) [1] was “did not affect” and the “effect on spontaneous contractions in the proximal colon” value (“effect on spontaneous contractions” for short) [1] was “no significant effects”.

In the case of `CCCCCCCCCCCCC[N+](C)(C)Cc1ccccc1` [BAC, benzalkonium chloride], the “spontaneous basal muscle contraction in BAC-treated vs vehicle-treated tissues” value ([2]; BAC 0.1% on serosal surface of proximal colon, two weeks before) is reported as “significantly higher” and the “response to EFS of muscle strips from BAC-treated rats” value ([2]; EFS 65 V, 0.5 msec, 10 Hz) is reported as “failed to cause any responses”.

With `N=C(N)NCCN1CCCCCCC1` [guanethidine] the “effect of antagonist” value [1] was “not affected”.

In the case of `CC(C)C[C@@H]1NC(=O)[C@H](C)NC(=O)[C@H]([C@@H](C)O)NC(=O)[C@H](CCC(=O)O)NC(=O)[C@@H]2CCCN2C(=O)[C@H](C)NC(=O)[C@H](CCCCN)NC(=O)[C@@H]2CSSC[C@@H](C(=O)N[C@@H](CCC(N)=O)C(=O)N[C@@H](CCC(N)=O)C(=O)N[C@@H](Cc3cnc[nH]3)C(N)=O)NC(=O)[C@H](CCCNC(=N)N)NC(=O)[C@H](CCCNC(=N)N)NC(=O)[C@H](C)NC(=O)[C@H](CSSC[C@H](N)C(=O)N[C@@H](CC(N)=O)C(=O)N2)NC1=O` [apamin], the “effect of antagonist” value [1] is reported as “preserved” and the “effect on spontaneous contractions” value [1] is reported as “enhanced spontaneous contractions”.

In the case of `CC(C)NCC(O)COc1cccc2ccccc12` (stereo not shown) [propranolol], the “effect of antagonist” value [1] is reported as “not affected”.

With `C[N+](C)(C)CCCCCC[N+](C)(C)C` [hexamethonium] the “effect of antagonist” value [1] was “did not affect”.

In the case of `CN1[C@@H]2CC[C@H]1C[C@@H](OC(=O)C(CO)c1ccccc1)C2` (stereo partly shown) [atropine, Atropine, reference compound], the “effect of antagonist” value [1] is reported as “did not affect”, the “EFS-evoked on- and off-contraction reduced to” value [3] is reported as 10-20% and the “EFS-evoked on- and off-contraction reduced to” value [4] is reported as 10-20%. The “EFS-evoked on- and off-contraction reduced to” value [5] was 10-20%.

For `COc1ccc2c(c1)c(CC(=O)O)c(C)n2C(=O)c1ccc(Cl)cc1` [indomethacin], the “effect of antagonist” value [1] was “did not affect”.

For `CCN(CC)CCNC(=O)c1cc(Cl)c(N)cc1OC` [metoclopramide], the “effect on colonic motility” value (colonic motility) is given as “little effect” and the “efficacy in constipated patients” value (colonic motility) is given as “not very effective”.

For `CC[C@@H](CO)NC(=O)[C@@H]1C=C2c3cccc4c3c(cn4C)C[C@H]2N(C)C1` [methysergide], the “effect of antagonist” value [1] was “did not affect”.

With `COC(=O)[C@@H](N)CCCNC(=N)N[N+](=O)[O-]` [L-NAME, NG-nitro-L-arginine methyl ester] the “effect of antagonist” value [1] was “preserved” and the “effect on spontaneous contractions” value [1] was “enhanced spontaneous contractions”.

With `C=CCN1CC[C@]23c4c5ccc(O)c4O[C@H]2C(=O)CC[C@@]3(O)[C@H]1C5` [naloxone] the “effect of antagonist” value ([1]; 10 min preincubation, then OFQ (10^-8 M), atropine 10^-6 M, hexamethonium 10^-4 M, naloxone 10^-5 M, indomethacin 10^-5 M, methysergide 3x10^-5 M, substance P antagonist 10^-5 M, VIP antagonist 5x10^-6 M, L-NAME 10^-4 M, apamin 10^-6 M, guanethidine, phentolamine, propranolol 10^-6 M) was “did not affect”.

For `Cc1ccc(N(CC2=NCCN2)c2cccc(O)c2)cc1` [phentolamine], the “effect of antagonist” value [1] was “not affected”.

In the case of `CN1C[C@H](C(=O)N[C@]2(C)O[C@@]3(O)[C@@H]4CCCN4C(=O)[C@H](Cc4ccccc4)N3C2=O)C[C@@H]2c3cccc4[nH]cc(c34)C[C@H]21` [DHE, dihydroergotamine], the “duration of post-operative ileus, treated vs placebo/control patients” value (post-operative ileus; patients after abdominal / gastrointestinal surgery, literature trials) is listed as “no significant differences”.

With “[D-Pro^4, D-Trp7.9]-substance P 4-11 [substance P antagonist]” the “effect of antagonist” value [1] was “did not affect”.

B1: cholecystokinin (peptide, UniProt P06307 21-115, looked up)
Cholecystokinin: QPVPPADPAGSGLQRAEEAPRRQLRVSQRTDGESRAHLGALLARYIQQARKAPSGRMSIVKNLQNLDPSHRISDRDYMGWMDFGRRSAEEYEYPS
modifications: Cholecystokinin
In the case of B1, the “duration of post-operative ileus, treated vs placebo/control patients” value (post-operative ileus; human, in vivo) is listed as “no differences”.
